From patent publication US8791148B2, “Substituted benzimidazolone derivatives, medicaments comprising them and their use” (AbbVie Deutschland GmbH & Co. KG, priority 2006, dated 2014) come the findings set out here.

pKi: −log10 of the molar value.

This assay addresses T1, human vasopressin V1b receptor (Homo sapiens, UniProt P47901).
T1 construct: expressed in transfected cells; host or cells: CHO-K1 (cell line hV1b-3H2_CHO), membrane preparation
T1 sequence (P47901 1-424): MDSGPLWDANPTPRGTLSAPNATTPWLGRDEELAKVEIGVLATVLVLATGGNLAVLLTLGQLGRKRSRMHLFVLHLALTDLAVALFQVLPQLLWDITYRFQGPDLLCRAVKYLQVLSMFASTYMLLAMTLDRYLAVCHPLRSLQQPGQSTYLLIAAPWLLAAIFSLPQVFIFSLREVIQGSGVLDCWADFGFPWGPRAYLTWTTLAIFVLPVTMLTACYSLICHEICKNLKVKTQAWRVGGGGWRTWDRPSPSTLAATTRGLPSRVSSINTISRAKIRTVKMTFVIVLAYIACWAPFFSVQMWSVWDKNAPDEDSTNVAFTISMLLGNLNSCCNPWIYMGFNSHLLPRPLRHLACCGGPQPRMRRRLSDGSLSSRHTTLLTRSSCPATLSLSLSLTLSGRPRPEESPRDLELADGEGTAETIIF
Description: Vasopressin V1b receptor binding assay. The conditions noted are these: membranes from CHO-K1 cells with stably expressed human V1b receptors; displacement of 1.5 nM 3H-AVP; read-out: V1b receptor affinity (affinity constant Ki). In a few lines: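 Ki values come from nonlinear regression of triplicate scintillation counts after filtration. Test compound (2% DMSO in the mixture) and radioligand were incubated 60 min at room temperature with human V1b membranes in pH 7.4 Tris buffer with 10 mM MgCl2 and 0.1% BSA. Nonspecific binding was set with 1 uM AVP.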
For `COc1ccc(S(=O)(=O)n2c(=O)n(CC(=O)N3CCCCC3)c3cc(Cl)ccc32)cc1` [Example 87, 5-Chloro-1-(4-methoxybenzenesulfonyl)-3-(2-oxo-2-piperidin-1-yl-ethyl)-1,3-dihydrobenzimidazol-2-one], the negative-log Ki (pKi) (usually the Ki on a negative log10 scale, so that one unit is a factor of ten) is 5.00 to 6.30.

Take `COc1ccc(S(=O)(=O)n2c(=O)n(C(C(=O)N3CCC(NC4CCNCC4)C3)c3ccccc3)c3cc(Cl)ccc32)cc1` (stereo not drawn) [Example 175, 5-Chloro-1-(4-methoxybenzenesulfonyl)-3-{2-oxo-1-phenyl-2-[3-(piperidin-4-ylamino)pyrrolidin-1-yl]ethyl}-1,3-dihydrobenzimidazol-2-one]: the pKi is > 7.00.

Regarding `CN1CCC(N2CCN(C(=O)C(c3ccccc3)n3c(=O)n(S(=O)(=O)c4cccc5cccnc45)c4cc(Cl)ccc43)CC2)CC1` (stereo not drawn) [Example 71, 5-Chloro-1-{2-[4-(1-methylpiperidin-4-yl)piperazin-1-yl]-2-oxo-1-phenyl-ethyl}-3-(quinoline-8-sulfonyl)-1,3-dihydrobenzimidazol-2-one], the negative logarithm of the Ki (pKi) was 5.00 to 6.30.

Consider `COc1ccc(S(=O)(=O)n2c(=O)n(C(C(=O)N3CC[C@H](N4CCN(Cc5ccccc5)CC4)C3)c3ccccc3)c3cc(C#N)ccc32)cc1` (stereo partly drawn) [Example 143, 3-{2-[(S)-3-(4-Benzylpiperazin-1-yl)-pyrrolidin-1-yl]-2-oxo-1-phenylethyl}-1-(4-methoxybenzenesulfonyl)-2-oxo-2,3-dihydro-1H-benzimidazole-5-carbonitrile], for which the pKi is > 7.00.

`COc1ccc(S(=O)(=O)n2c(=O)n(C(C(=O)N3CCC[C@@H](N)C3)c3ccccc3)c3cc(C#N)ccc32)cc1` (stereo partly drawn) [Example 241, 3-[2-((R)-3-Amino-piperidin-1-yl)-2-oxo-1-phenyl-ethyl]-1-(4-methoxybenzenesulfonyl)-2-oxo-2,3-dihydro-1H-benzoimidazole-5-carbonitrile]: the pKi was 5.00 to 6.30.

Turning to `COc1ccc(S(=O)(=O)n2c(=O)n(C(C(=O)N3CCC[C@H](N4CCNCC4)C3)c3ccccc3)c3cc(C#N)ccc32)cc1` (stereo partly drawn) [Example 195, 1-(4-Methoxybenzenesulfonyl)-2-oxo-3-[2-oxo-1-phenyl-2-((S)-3-piperazin-1-ylpiperidin-1-yl)ethyl]-2,3-dihydro-1H-benzimidazole-5-carbonitrile], the pKi is > 7.00.

Regarding `CCN(CC)CCN(C)C(=O)C(c1ccccc1)n1c(=O)n(S(=O)(=O)c2ccc(OC)cc2)c2ccc(Cl)cc21` (stereo not drawn) [Example 119, 2-[6-Chloro-3-(4-methoxybenzenesulfonyl)-2-oxo-2,3-dihydrobenzimidazol-1-yl]-N-(2-diethylaminoethyl)-N-methyl-2-phenylacetamide], the pKi is 6.30 to 7.00.

On to `COc1ccc(S(=O)(=O)n2c(=O)n(C(C(=O)N3CCCC(N4CCN(Cc5ccccc5)CC4)C3)c3ccccc3)c3cc(Cl)ccc32)cc1` (stereo not drawn) [Example 139, 3-{2-[3-(4-Benzylpiperazin-1-yl)piperidin-1-yl]-2-oxo-1-phenylethyl}-5-chloro-1-(4-methoxybenzenesulfonyl)-1,3-dihydrobenzimidazol-2-one], for which the pKi is > 7.00.

For the compound `COc1ccc(S(=O)(=O)n2c(=O)n(C(Cc3ccccc3)C(=O)N3CCN(c4ccncc4)CC3)c3cc(Cl)ccc32)c(OC)c1` (stereo not drawn) [Example 28, 3-[1-Benzyl-2-oxo-2-(4-pyridin-4-ylpiperazin-1-yl)ethyl]-5-chloro-1-(2,4-dimethoxybenzenesulfonyl)-1,3-dihydrobenzimidazol-2-one], the negative-log Ki (pKi) is > 7.00.

`CN1CCC(N2CCN(C(=O)C(c3ccccc3)n3c(=O)n(S(=O)(=O)c4ccc(C#N)cc4)c4ccc(C#N)cc43)CC2)CC1` (stereo not drawn) [Example 23, 1-(4-Cyanobenzenesulfonyl)-3-{2-[4-(1-methylpiperidin-4-yl)piperazin-1-yl]-2-oxo-1-phenylethyl}-2-oxo-2,3-dihydro-1H-benzimidazole-5-carbonitrile]: the pKi was 5.00 to 6.30.

For the compound `COc1ccc(S(=O)(=O)n2c(=O)n(C(C(=O)N3CCN(c4ccncc4)CC3)c3ccccc3OC)c3cc(Cl)ccc32)c(OC)c1` (stereo not drawn) [Example 12, 5-Chloro-1-(2,4-dimethoxybenzenesulfonyl)-3-[1-(2-methoxyphenyl)-2-oxo-2-(4-pyridin-4-ylpiperazin-1-yl)ethyl]-1,3-dihydrobenzimidazol-2-one], the negative-log Ki (pKi) is 5.00 to 6.30.

`COc1ccc(S(=O)(=O)n2c(=O)n(C(C(=O)N[C@@H]3CCNC3)c3ccccc3)c3cc(Cl)ccc32)cc1` (stereo partly drawn) [Example 174, 2-[6-Chloro-3-(4-methoxybenzenesulfonyl)-2-oxo-2,3-dihydrobenzimidazol-1-yl]-2-phenyl-N—(R)-pyrrolidin-3-ylacetamide]: the pKi is 5.00 to 6.30.

With `CCCN1CCN([C@H]2CCN(C(=O)C(c3ccccc3)n3c(=O)n(S(=O)(=O)c4ccc(C#N)cc4)c4ccc(C#N)cc43)C2)CC1` (stereo partly drawn) [Example 215, 1-(4-Cyano-benzenesulfonyl)-2-oxo-3-{2-oxo-1-phenyl-2-[(S)-3-(4-propylpiperazin-1-yl)-pyrrolidin-1-yl]ethyl}-2,3-dihydro-1H-benzoimidazole-5-carbonitrile], the negative-log Ki (pKi) is 6.30 to 7.00.

With `COc1ccc(S(=O)(=O)n2c(=O)n(C(C(=O)N3CCN(C4CCN(C)CC4)CC3)c3ccccc3)c3cc(Cl)c(Cl)cc32)c(OC)c1` (stereo not drawn) [Example 69, 5,6-Dichloro-1-(2,4-dimethoxybenzenesulfonyl)-3-{2-[4-(1-methylpiperidin-4-yl)piperazin-1-yl]-2-oxo-1-phenyl-ethyl}-1,3-dihydrobenzimidazol-2-one], the negative-log Ki (pKi) is 5.00 to 6.30.

With `COc1ccc(S(=O)(=O)n2c(=O)n(C(C(=O)N3CC[C@H](N)C3)c3ccccc3)c3cc(Cl)ccc32)cc1` (stereo partly drawn) [Example 168, 3-[2-((S)-3-Aminopyrrolidin-1-yl)-2-oxo-1-phenylethyl]-5-chloro-1-(4-methoxybenzenesulfonyl)-1,3-dihydrobenzimidazol-2-one], the pKi was 6.30 to 7.00.

Take `CCCN1CCN(CCNC(=O)C(c2ccccc2)n2c(=O)n(S(=O)(=O)c3ccc(OC)cc3)c3ccc(Cl)cc32)CC1` (stereo not drawn) [Example 133, 2-[6-Chloro-3-(4-methoxybenzenesulfonyl)-2-oxo-2,3-dihydrobenzimidazol-1-yl]-2-phenyl-N-[2-(4-propylpiperazin-1-yl)-ethyl]-acetamide]: the negative-log Ki (pKi) was 6.30 to 7.00.

Consider `COc1ccc(S(=O)(=O)n2c(=O)n(C(C(=O)N3CC[C@H](NCc4c[nH]cn4)C3)c3ccccc3)c3cc(C#N)ccc32)cc1` (stereo partly drawn) [Example 242, 3-(2-{(S)-3-[(1H-Imidazol-4-ylmethyl)-amino]-pyrrolidin-1-yl}-2-oxo-1-phenylethyl)-1-(4-methoxy-benzenesulfonyl)-2-oxo-2,3-dihydro-1H-benzoimidazole-5-carbonitrile; compound with trifluoroacetic acid], for which the pKi was > 7.00.

Take `COc1ccc(S(=O)(=O)n2c(=O)n(C(C(=O)N3CC[C@H](NC(=O)C4CCN(C)CC4)C3)c3ccccc3)c3cc(C#N)ccc32)cc1` (stereo partly drawn) [Example 252, 1-Methyl-piperidine-4-carboxylic acid ((S)-1-{2-[6-cyano-3-(4-methoxybenzenesulfonyl)-2-oxo-2,3-dihydro-benzoimidazol-1-yl]-2-phenyl-acetyl}-pyrrolidin-3-yl)-amide; compound with trifluoroacetic acid]: the pKi is 6.30 to 7.00.
